Measurements as given in patent US10485874B2, “Hyaluronic acid modified by sphingosine-1-phosphoric acid” (priority 2014, dated 2019).

Assays:
[1] = tested on: serum ALT; assay: Rat total liver ischemia/reperfusion model: serum ALT (liver function); format: in vivo, Sprague-Dawley rats; conditions: 100 μg/kg in terms of S1P via tail vein 10 min before 20 min total liver ischemia
Experimental: (§1) Male Sprague-Dawley (hereinbelow, SD) rats, 200 to 250 g, were obtained from CLEA Japan, Inc. (Tokyo, Japan). Four groups of SD rats were studied.
(§2) A study was conducted for a methanol-administration group, where methanol was the solvent for S1P (the content of administration:methanol (50 μl)+3% BSA (150 μl), 200 μl in total), a HA-administration group (the content of administration: 8 kDa HA dissolved in methanol:ultrapure water=1:3 at 0.32564 g/l, 200 μl in total), an S1P-administration group (the content of administration: 100 μg/kg in terms of the dose of S1P, S1P (50 μl)+3% BSA (150 μl), 200 μl in total), a HA-S1P-administration group (the content of administration: 100 μg/kg in terms of the dose of S1P, the HA-S1P formulation prepared at Hokkaido University was dissolved in methanol:ultrapure water=1:3 at 0.358 g/l, 200 μl in total).
Each agent was injected into the tail vein of rats. Ten minutes after the injection, the hepatic artery, portal vein, and bile duct were occluded at once with microclips for 20 minutes. Upon completion of 20 minutes of total liver ischemia, the occlusion was released. For pathological examination, liver tissues were removed from 10 to 15 rats in each group 120 minutes after reperfusion. Also, blood was collected immediately before the injection of the agents and 30 minutes, 60 minutes, and 120 minutes after reperfusion.
In order to evaluate the injury of liver parenchyma, the serum ALT value was measured with an autoanalyzer (FUJI DRI-CHEM 7000V, Fujifilm, Tokyo, Japan).
Statistical analysis was conducted using the Kruskal Wallis H-test and the Mann-Whitney U test with Bonferroni correction as a post hoc test. Also, p< 0.05 was accepted to be indicative of statistical significance.
Using 200 to 250 g SD rats, four experimental groups (A) to (D) were prepared. […]

[2] = tested on: cleaved caspase 3; assay: Rat liver ischemia/reperfusion model: Western blot of cleaved caspase 3 in liver tissue; format: in vivo, Sprague-Dawley rats; conditions: liver tissue 120 minutes after reperfusion
Experimental: as §1, §2
(§3) Each agent was injected into the tail vein of rats. Ten minutes after the injection, the hepatic artery, portal vein, and bile duct were occluded at once with microclips for 20 minutes. Upon completion of 20 minutes of total liver ischemia, the occlusion was released. For pathological examination, liver tissues were removed from 10 to 15 rats in each group 120 minutes after reperfusion. Also, blood was collected immediately before the injection of the agents and 30 minutes, 60 minutes, and 120 minutes after reperfusion. […]

[3] = tested on: HO-1; assay: Rat liver ischemia/reperfusion model: Western blot of HO-1 in liver tissue; format: in vivo, Sprague-Dawley rats; conditions: liver tissue 120 minutes after reperfusion
Experimental: as §1, §2, §3

[4] = tested on: sinusoid structure; assay: Rat liver ischemia/reperfusion model: HE staining, pathological evaluation of liver; format: in vivo, Sprague-Dawley rats; conditions: liver tissue 120 minutes after reperfusion; 200× field
Experimental: as §1, §2
Each agent was injected into the tail vein of rats. Ten minutes after the injection, the hepatic artery, portal vein, and bile duct were occluded at once with microclips for 20 minutes. Upon completion of 20 minutes of total liver ischemia, the occlusion was released. […]
The liver tissues were fixed in 10% buffered formalin, and then embedded in paraffin, followed by staining with hematoxylin and eosin. The tissue sections of each group were evaluated. […]

[5] = tested on: TUNEL-positive cells; assay: Rat liver ischemia/reperfusion model: TUNEL staining of liver (apoptosis-positive cells); format: in vivo, Sprague-Dawley rats
Experimental: as §1, §2
Each agent was injected into the tail vein of rats. Ten minutes after the injection, the hepatic artery, portal vein, and bile duct were occluded at once with microclips for 20 minutes. […]
Using DeadEnd® Colorimetric TUNEL System (G7360) supplied by Promega KK, apoptosis-positive cells were immunohistochemically detected. The tissue sections of each group were evaluated. The number of TUNEL-positive cells and the total number of hepatocytes were counted in 10 randomly selected high-power fields (400×) focusing on the portal vein. […]

[6] = tested on: liver sinusoidal endothelial cells; assay: Rat liver ischemia/reperfusion model: electron microscopic evaluation of the microstructure of liver; format: in vivo, Sprague-Dawley rats; conditions: liver excised 120 minutes after reperfusion
Experimental: as §1, §2
as §3, with “reperfusion.” for “reperfusion. Also, blood was collected immediately before the injection of the agents and 30 minutes, 60 minutes, and 120 minutes after reperfusion.”
The liver sinusoidal endothelial cells after ischemia/reperfusion were evaluated with an electron microscopy. […]

[7] = Accumulation of S1P in the liver by Western blot; format: in vivo, rat; conditions: Western blot with anti-S1P antibody; versus the S1P only sample
Experimental: The expression of S1P in the liver tissues was confirmed by Western blot in accordance with the following method.
The rat liver tissues stored at −80° C. were homogenized in a buffer prepared from various reagents (150 mmol/L NaCl, 50 mM Tris-Cl, 1% NP-40, and a protease inhibitor). The resulting samples were centrifuged and the supernatants were collected for analysis. The samples thus obtained were separated using 10% SDS-PAGE gel and transferred to nitrocellulose membranes (Millipore, Bedford, Mass.). As the primary antibody, Anti-S1P antibody (ab140592) (1:1000, rabbit polyclonal, Abcam, Cambridge, UK) was used. As the secondary antibody, Anti-rabbit IgG, HRP-linked antibody (#7074S) (1:1000, Cell Signalling Technology, Beverley, Mass., USA) was used.

Substance: hyaluronic acid modified with sphingosine-1-phosphate [HA-S1P]
- serum ALT value ([1]; 30 minutes after reperfusion, versus vehicle and S1P groups): significantly lower
- serum ALT value ([1]; 60 minutes after reperfusion, versus vehicle, HA and S1P groups): significantly lower
- serum ALT value ([1]; 120 minutes after reperfusion, versus HA group): significantly lower
- expression of the apoptosis-related protein cleaved caspase 3 [2]: inhibited
- expression of HO-1 [3]: increased
- sinusoid structure (HE staining) [4]: sinusoid structure was maintained
- percentage of TUNEL-positive cells (TUNEL-positive cells/total number of hepatocytes) ([5]; 400× fields centering around Zone 1, 10 fields per sample, 120 minutes after reperfusion): significantly low
- TUNEL staining, positive cells ([5]; liver tissue 120 minutes after reperfusion): positive cells were almost unobserved
- microstructure of LSECs (electron microscopic images) [6]: undercoat structure of LSECs was maintained
- expression of S1P in the liver tissues [7]: higher
